From ChEMBL document CHEMBL1158411, “Second generation of BACE-1 inhibitors part 3: Towards non hydroxyethylamine transition state mimetics” (Bioorg Med Chem Lett, 2009)

system: Brain; test: Steady sate drug level in brain of mdr1a/b knockout mouse by HPLC analysis; type: ADME, tissue-based; settings: in vivo, read-out: Css

| Compound | concentration |
| --- | --- |
| CCc1cn2c3c(cc(C(=O)N[C@@H](Cc4ccccc4)[C@H](O)CNC4CC4)cc13)N(C)S(=O)(=O)CC2 | 989 nM |
| CCn1cc2c3c(cc(C(=O)N[C@@H](Cc4ccccc4)[C@H](O)CNCCC(F)(F)F)cc31)N(C)S(=O)(=O)CC2 | 335 nM |

target: T1, Beta-secretase 1 (Homo sapiens, UniProt P56817); test: Inhibition of BACE1; settings: not given
T1 sequence (P56817 whole entry): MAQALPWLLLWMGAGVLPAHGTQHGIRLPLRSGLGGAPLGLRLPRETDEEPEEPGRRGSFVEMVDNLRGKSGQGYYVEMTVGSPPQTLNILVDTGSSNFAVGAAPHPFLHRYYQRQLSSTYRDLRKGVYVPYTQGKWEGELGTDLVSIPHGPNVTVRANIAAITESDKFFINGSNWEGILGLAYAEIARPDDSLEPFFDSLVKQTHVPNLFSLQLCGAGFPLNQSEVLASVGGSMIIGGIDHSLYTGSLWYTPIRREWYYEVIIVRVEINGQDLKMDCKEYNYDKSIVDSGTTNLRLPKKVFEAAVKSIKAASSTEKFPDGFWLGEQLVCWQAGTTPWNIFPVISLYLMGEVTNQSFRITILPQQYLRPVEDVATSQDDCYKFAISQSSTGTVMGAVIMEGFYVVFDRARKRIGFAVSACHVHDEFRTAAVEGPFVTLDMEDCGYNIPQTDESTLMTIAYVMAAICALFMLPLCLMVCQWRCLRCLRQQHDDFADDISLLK

| Compound | IC50 |
| --- | --- |
| CCc1cn2c3c(cc(C(=O)N[C@@H](Cc4ccccc4)[C@H](O)CNC4CC4)cc13)N(C)S(=O)(=O)CC2 | 0.011 µM |
| CCNC[C@@H](O)[C@H](Cc1ccccc1)NC(=O)c1cc2c3c(c1)c(CC)cn3CCS(=O)(=O)N2C | 0.048 µM |

More lines, now with the values ahead:

| IC50 | Compound |
| --- | --- |
| 0.02 µM | CCn1cc2c3c(cc(C(=O)N[C@@H](Cc4ccccc4)[C@H](O)CNCC(F)F)cc31)N(C)S(=O)(=O)CC2 |
| 0.079 µM | CCn1cc2c3c(cc(C(=O)N[C@@H](Cc4ccccc4)[C@H](O)CNCC(F)(F)F)cc31)N(C)S(=O)(=O)CC2 |
| 0.023 µM | CCNC[C@@H](O)[C@H](Cc1ccccc1)NC(=O)c1cc2c3c(cn(CC)c3c1)CCS(=O)(=O)N2C |

target: T1, Beta-secretase 1; test: Inhibition of BACE1 in human SHSY5Y cells expressing wild type APP assessed as inhibition of intracellular amyloid beta-40 secretion; type: cell-based, SH-SY5Y; settings: not given

| Compound | IC50 |
| --- | --- |
| CCNC[C@@H](O)[C@H](Cc1ccccc1)NC(=O)c1cc2c3c(c1)c(CC)cn3CCS(=O)(=O)N2C | 0.262 µM |
| CCn1cc2c3c(cc(C(=O)N[C@@H](Cc4ccccc4)[C@H](O)CNCC(F)F)cc31)N(C)S(=O)(=O)CC2 | 0.051 µM |
| CCn1cc2c3c(cc(C(=O)N[C@@H](Cc4ccccc4)[C@H](O)CNCC(F)(F)F)cc31)N(C)S(=O)(=O)CC2 | 2.11 µM |
| CCNC[C@@H](O)[C@H](Cc1ccccc1)NC(=O)c1cc2c3c(cn(CC)c3c1)CCS(=O)(=O)N2C | 0.073 µM |

system: not listed separately; test: Half life in dog at 1 mg/kg/hr, iv; type: ADME, organism-based, Canis lupus familiaris; design: route intravenous; settings: in vivo

| Compound | half-life |
| --- | --- |
| CCn1cc2c3c(cc(C(=O)N[C@@H](Cc4ccccc4)[C@H](O)CNCCC(F)(F)F)cc31)N(C)S(=O)(=O)CC2 | 6.8 h |

system: not listed separately; test: Volume of distribution in rat at 1 mg/kg/hr, iv; type: ADME, organism-based; design: route intravenous; settings: in vivo

| Compound | Vd |
| --- | --- |
| CCn1cc2c3c(cc(C(=O)N[C@@H](Cc4ccccc4)[C@H](O)CNCCC(F)(F)F)cc31)N(C)S(=O)(=O)CC2 | 11 L/kg |

target: Cathepsin D (Homo sapiens, UniProt P07339); test: Inhibition of cathepsin-D; settings: not given
Sequence (P07339 65-162 limits assumed): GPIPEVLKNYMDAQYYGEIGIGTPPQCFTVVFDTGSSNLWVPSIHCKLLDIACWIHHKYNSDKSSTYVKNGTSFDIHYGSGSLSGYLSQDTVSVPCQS
Sequence (P07339 169-412 limits assumed): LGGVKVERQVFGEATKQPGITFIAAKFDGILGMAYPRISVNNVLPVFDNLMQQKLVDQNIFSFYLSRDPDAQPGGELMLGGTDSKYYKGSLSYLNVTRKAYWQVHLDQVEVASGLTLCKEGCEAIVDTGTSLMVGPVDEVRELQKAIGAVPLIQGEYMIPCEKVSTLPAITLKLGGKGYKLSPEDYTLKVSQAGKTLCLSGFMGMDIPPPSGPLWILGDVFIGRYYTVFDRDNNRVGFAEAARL

| Compound | IC50 |
| --- | --- |
| CCNC[C@@H](O)[C@H](Cc1ccccc1)NC(=O)c1cc2c3c(c1)c(CC)cn3CCS(=O)(=O)N2C | 36.3 µM |
| CCNC[C@@H](O)[C@H](Cc1ccccc1)NC(=O)c1cc2c3c(cn(CC)c3c1)CCS(=O)(=O)N2C | 19.5 µM |
| CCn1cc2c3c(cc(C(=O)N[C@@H](Cc4ccccc4)[C@H](O)CNCCC(F)(F)F)cc31)N(C)S(=O)(=O)CC2 | 0.57 µM |

system: not listed separately; test: Half life in rat at 1 mg/kg/hr, iv; type: ADME, organism-based; design: route intravenous; settings: in vivo

| Compound | half-life |
| --- | --- |
| CCn1cc2c3c(cc(C(=O)N[C@@H](Cc4ccccc4)[C@H](O)CNCCC(F)(F)F)cc31)N(C)S(=O)(=O)CC2 | 3.3 h |

system: not listed separately; test: Blood clearance in dog at 1 mg/kg/hr, iv; type: ADME, organism-based, Canis lupus familiaris; design: route intravenous; settings: not given

| Compound | clearance |
| --- | --- |
| CCn1cc2c3c(cc(C(=O)N[C@@H](Cc4ccccc4)[C@H](O)CNCCC(F)(F)F)cc31)N(C)S(=O)(=O)CC2 | 14 mL/min/kg |

system: not listed separately; test: Volume of distribution in dog at 1 mg/kg/hr, iv; type: ADME, organism-based, Canis lupus familiaris; design: route intravenous; settings: in vivo

| Compound | Vd |
| --- | --- |
| CCn1cc2c3c(cc(C(=O)N[C@@H](Cc4ccccc4)[C@H](O)CNCCC(F)(F)F)cc31)N(C)S(=O)(=O)CC2 | 4.8 L/kg |

system: not listed separately; test: Bioavailability in rat; type: ADME, organism-based; settings: in vivo

| Compound | bioavailability |
| --- | --- |
| CCc1cn2c3c(cc(C(=O)N[C@@H](Cc4ccccc4)[C@H](O)CNC4CC4)cc13)N(C)S(=O)(=O)CC2 | 17% |
| CCn1cc2c3c(cc(C(=O)N[C@@H](Cc4ccccc4)[C@H](O)CNCCC(F)(F)F)cc31)N(C)S(=O)(=O)CC2 | 13% |

target: T2, Beta-secretase 2 (Homo sapiens, UniProt Q9Y5Z0); test: Inhibition of BACE2; settings: not given
T2 sequence (Q9Y5Z0 whole entry): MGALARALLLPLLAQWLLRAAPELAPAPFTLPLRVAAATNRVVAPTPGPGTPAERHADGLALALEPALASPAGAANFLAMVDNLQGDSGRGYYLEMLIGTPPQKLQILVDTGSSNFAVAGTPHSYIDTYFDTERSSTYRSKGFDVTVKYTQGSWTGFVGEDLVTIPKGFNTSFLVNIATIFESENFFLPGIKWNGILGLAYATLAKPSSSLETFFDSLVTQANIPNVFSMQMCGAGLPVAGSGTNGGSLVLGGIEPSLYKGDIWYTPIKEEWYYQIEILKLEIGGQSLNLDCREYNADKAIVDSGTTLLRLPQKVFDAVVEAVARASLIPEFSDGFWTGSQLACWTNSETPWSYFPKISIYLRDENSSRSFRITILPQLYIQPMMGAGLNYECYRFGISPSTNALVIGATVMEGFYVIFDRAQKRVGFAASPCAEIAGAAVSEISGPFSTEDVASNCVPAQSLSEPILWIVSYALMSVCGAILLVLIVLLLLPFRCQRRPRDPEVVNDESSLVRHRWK

| Compound | IC50 |
| --- | --- |
| CCNC[C@@H](O)[C@H](Cc1ccccc1)NC(=O)c1cc2c3c(c1)c(CC)cn3CCS(=O)(=O)N2C | 1.14 µM |
| CCNC[C@@H](O)[C@H](Cc1ccccc1)NC(=O)c1cc2c3c(cn(CC)c3c1)CCS(=O)(=O)N2C | 2.17 µM |
| CCn1cc2c3c(cc(C(=O)N[C@@H](Cc4ccccc4)[C@H](O)CNCCC(F)(F)F)cc31)N(C)S(=O)(=O)CC2 | 0.075 µM |

system: Blood; test: Steady sate drug level in blood of mdr1a/b knockout mouse by HPLC analysis; type: ADME, tissue-based; settings: read-out: Css

| Compound | concentration |
| --- | --- |
| CCc1cn2c3c(cc(C(=O)N[C@@H](Cc4ccccc4)[C@H](O)CNC4CC4)cc13)N(C)S(=O)(=O)CC2 | 397 nM |
| CCn1cc2c3c(cc(C(=O)N[C@@H](Cc4ccccc4)[C@H](O)CNCCC(F)(F)F)cc31)N(C)S(=O)(=O)CC2 | 339 nM |

system: not listed separately; test: Bioavailability in dog; type: ADME, organism-based, Canis lupus familiaris; settings: in vivo

| Compound | bioavailability |
| --- | --- |
| CCn1cc2c3c(cc(C(=O)N[C@@H](Cc4ccccc4)[C@H](O)CNCCC(F)(F)F)cc31)N(C)S(=O)(=O)CC2 | 52% |

system: not listed separately; test: Ratio of steady sate drug level in brain to blood of wild type mouse expressing mdr1a/b; type: ADME, tissue-based; settings: not given

| Compound | Kp |
| --- | --- |
| CCc1cn2c3c(cc(C(=O)N[C@@H](Cc4ccccc4)[C@H](O)CNC4CC4)cc13)N(C)S(=O)(=O)CC2 | 0.13 |
| CCn1cc2c3c(cc(C(=O)N[C@@H](Cc4ccccc4)[C@H](O)CNCCC(F)(F)F)cc31)N(C)S(=O)(=O)CC2 | 0.1 |

system: not listed separately; test: Lipophilicity, log D at pH 7.4; settings: buffer

| Compound | logD |
| --- | --- |
| CCc1cn2c3c(cc(C(=O)N[C@@H](Cc4ccccc4)[C@H](O)CNC4CC4)cc13)N(C)S(=O)(=O)CC2 | 2.17 |
| CCNC[C@@H](O)[C@H](Cc1ccccc1)NC(=O)c1cc2c3c(cn(CC)c3c1)CCS(=O)(=O)N2C | 0.07 |
| CCn1cc2c3c(cc(C(=O)N[C@@H](Cc4ccccc4)[C@H](O)CNCCC(F)(F)F)cc31)N(C)S(=O)(=O)CC2 | 2.59 |

system: not listed separately; test: Blood clearance in mdr1a/b knockout mouse by HPLC analysis; type: ADME, organism-based; settings: not given

| Compound | clearance |
| --- | --- |
| CCc1cn2c3c(cc(C(=O)N[C@@H](Cc4ccccc4)[C@H](O)CNC4CC4)cc13)N(C)S(=O)(=O)CC2 | 62 mL/min/kg |
| CCn1cc2c3c(cc(C(=O)N[C@@H](Cc4ccccc4)[C@H](O)CNCCC(F)(F)F)cc31)N(C)S(=O)(=O)CC2 | 94 mL/min/kg |

system: not listed separately; test: Cmax in rat at 10 mg/kg; type: ADME, organism-based; design: dose 10 mg/kg; settings: in vivo

| Compound | Cmax |
| --- | --- |
| CCn1cc2c3c(cc(C(=O)N[C@@H](Cc4ccccc4)[C@H](O)CNCCC(F)(F)F)cc31)N(C)S(=O)(=O)CC2 | 88 nM |

system: not listed separately; test: Blood clearance in wild type mouse expressing mdr1a/b by HPLC analysis; type: ADME, organism-based; settings: not given

| Compound | clearance |
| --- | --- |
| CCc1cn2c3c(cc(C(=O)N[C@@H](Cc4ccccc4)[C@H](O)CNC4CC4)cc13)N(C)S(=O)(=O)CC2 | 72 mL/min/kg |
| CCn1cc2c3c(cc(C(=O)N[C@@H](Cc4ccccc4)[C@H](O)CNCCC(F)(F)F)cc31)N(C)S(=O)(=O)CC2 | 85 mL/min/kg |

system: not listed separately; test: Blood clearance in rat at 1 mg/kg/hr, iv; type: ADME, organism-based; design: route intravenous; settings: not given

| Compound | clearance |
| --- | --- |
| CCn1cc2c3c(cc(C(=O)N[C@@H](Cc4ccccc4)[C@H](O)CNCCC(F)(F)F)cc31)N(C)S(=O)(=O)CC2 | 57 mL/min/kg |

system: not listed separately; test: Cmax in dog at 10 mg/kg; type: ADME, organism-based, Canis lupus familiaris; design: dose 10 mg/kg; settings: in vivo

| Compound | Cmax |
| --- | --- |
| CCn1cc2c3c(cc(C(=O)N[C@@H](Cc4ccccc4)[C@H](O)CNCCC(F)(F)F)cc31)N(C)S(=O)(=O)CC2 | 3590 nM |

system: Blood; test: Steady sate drug level in blood of wild type mouse expressing mdr1a/b by HPLC analysis; type: ADME, tissue-based; settings: not given

| Compound | Css |
| --- | --- |
| CCc1cn2c3c(cc(C(=O)N[C@@H](Cc4ccccc4)[C@H](O)CNC4CC4)cc13)N(C)S(=O)(=O)CC2 | 490 nM |
| CCn1cc2c3c(cc(C(=O)N[C@@H](Cc4ccccc4)[C@H](O)CNCCC(F)(F)F)cc31)N(C)S(=O)(=O)CC2 | 381 nM |

system: Brain; test: Steady sate drug level in brain of wild type mouse expressing mdr1a/b by HPLC analysis; type: ADME, tissue-based; settings: in vivo

| Compound | Css |
| --- | --- |
| CCc1cn2c3c(cc(C(=O)N[C@@H](Cc4ccccc4)[C@H](O)CNC4CC4)cc13)N(C)S(=O)(=O)CC2 | 61 nM |
| CCn1cc2c3c(cc(C(=O)N[C@@H](Cc4ccccc4)[C@H](O)CNCCC(F)(F)F)cc31)N(C)S(=O)(=O)CC2 | 40 nM |

system: not listed separately; test: Ratio of steady sate drug level in brain to blood of mdr1a/b knockout mouse; type: ADME, tissue-based; settings: not given

| Compound | Kp |
| --- | --- |
| CCc1cn2c3c(cc(C(=O)N[C@@H](Cc4ccccc4)[C@H](O)CNC4CC4)cc13)N(C)S(=O)(=O)CC2 | 2.41 |
| CCn1cc2c3c(cc(C(=O)N[C@@H](Cc4ccccc4)[C@H](O)CNCCC(F)(F)F)cc31)N(C)S(=O)(=O)CC2 | 0.99 |
